This note sets out measurements from patent US20240382497A1, “PROPHYLACTIC OR THERAPEUTIC AGENT FOR HYPOXIC INJURY, ISCHAEMIA-REPERFUSION INJURY AND INFLAMMATION, CELL PROTECTION AGENT FOR TRANSPLANTATION, AND BIO-PRESERVATION AGENT” (priority 2018, published 2024).

Holding throughout (assay type): in vivo, mouse
The test system of assay [1] is Male C57/BL6N mice. Briefly: Core body temperature on odor presentation (radio-telemetry). The settings on record: filter paper scented with 271 μmol odor, 20 min, versus no odor. On the procedure:
An influence of a thiazoline-related compound and an odor molecule that induces learned fear on the core body temperature was analyzed. A radio-telemetry device for monitoring biological parameters (manufactured by Physiotel) was surgically implanted in the abdomen of male C57/BL6N mice (about 3 months old). The mice were subjected to the following experiment after about 10 days of recovery period. Each mouse was placed in a test cage and, after acclimation for 10 min, a filter paper dropped with water was presented for 10 min, after which a filter paper scented with 271 μmol of a thiazoline-related compound (2-methyl-2-thiazoline; 2MT) or an odor molecule that induces learned fear (anisole) was presented for 20 min. The information of body temperature was recorded every 10 sec using Dataquest A.R.T. software (DataScience international). The value of the core body temperature change was calculated as the difference between the mean core body temperature for 10 min when water was presented and the mean core body temperature for 20 min when each odor molecule was presented, and the change in the core body temperature without odor was set to 0. The mice presented with the odor that induces learned fear were trained to associate the anisole odor with electric shock one day before the measurement, whereby the mice learned to feel learned fear against the smell of anisole.

For assay [2], the system named is Male C57/BL6N mice. Briefly: Heart rate on odor presentation (radio-telemetry). The settings on record: filter paper scented with 271 μmol odor. On the procedure:
An influence of a thiazoline-related compound and an odor molecule that induces learned fear on the heart rate was analyzed. A radio-telemetry device for monitoring biological parameters (manufactured by Physiotel) was surgically implanted in the abdomen of male C57/BL6N mice (about 3 months old). The mice were subjected to the following experiment after about 10 days of recovery period. Each mouse was placed in a test cage and, after acclimation for 10 min, a filter paper dropped with water was presented for 10 min, after which a filter paper scented with 271μmol of a thiazoline-related compound (2-methyl-2-thiazoline; 2MT) or an odor molecule that induces learned fear (anisole) was presented for 20 min. The information of heart rate was recorded every 10 sec using Dataquest A.R.T. software (DataScience international). The value of the heart rate change was calculated as the difference between the heart rate for 10 min when water was presented and the mean heart rate for 20 min when each odor molecule was presented, and the change in the heart rate without odor was set to 0. The mice presented with the odor that induces learned fear were trained to associate the anisole odor with electric shock one day before the measurement, whereby the mice learned to feel learned fear against the smell of anisole.

Another assay deals with C57/BL6N male mice. Briefly: Oxygen consumption on odor presentation. The conditions noted are these: filter paper scented with 100 μl (104 mmol) odor, versus saline. On the procedure:
(§1) An influence of a thiazoline-related compound on the oxygen consumption was analyzed. The oxygen consumption was analyzed using an energy metabolism measurement device for small animals (ARCO-2000; ARCO SYSTEM). About 3-month-old C57/BL6N male mice were each placed in a measuring chamber and, after acclimation for about 2 hr, a thiazoline-related compound (2MT) was presented. The odors were presented by placing filter papers scented with 100 μl (104 mmol) of odor molecules in the measuring chamber. As a control, an experiment in which a filter paper dropped with saline was presented to the mice was also performed. The oxygen consumption was measured every one min. Mean oxygen consumption was calculated as the mean of 10 min before presenting odor and 20 min after presenting odor.

In a further assay the test system is Interleukin-1β (IL-1β). Briefly: Blood IL-1β in LPS sepsis model (ELISA). The conditions noted are these: about 80 mg/kg i.p., 1 hr and 4 hr, versus saline. The procedure:
(§2) Lipopolysaccharide (LPS) (0.6 mg/kg) was intraperitoneally administered to male Balb/c mice (about 2-3 months old) to generate a sepsis model. Immediately after the LPS administration, 200 μl (about 80 mg/kg) of a solution prepared by diluting various heterocyclic compounds and isothiocyanate compounds 100 times with saline was intraperitoneally administered. Blood samples were collected 60 min after LPS and compound administration, EDTA plasma was prepared, and the blood level of inflammatory cytokine TNF-a was measured by the ELISA method.
A sepsis model mouse was prepared by the same method as in Example 18. Immediately after the LPS administration, 200 μl (about 80 mg/kg) of a thiazoline-related compound (2MT) solution prepared by diluting 100 times with saline was intraperitoneally administered. Blood samples were collected 1 hr and 4 hr after administration of LPS and thiazoline-related compound (2MT), EDTA plasma was prepared, and the blood levels of inflammatory cytokine Interleukin-1β (IL-1β), and anti-inflammatory cytokine Interleukin-10 (IL-10) were measured by the ELISA method.
For orientation: An ELISA detects its analyte on a solid surface through an enzyme-linked reagent.

Assay [3] relates to High Mobility Group Box 1 (HMGB1). The assay is described as follows: Blood HMGB1 in LPS sepsis model (ELISA). The conditions noted are these: about 80 mg/kg i.p., 16 hr, versus saline. On the procedure:
as §2
A sepsis model mouse was prepared by the same method as in Example 18. Immediately after the LPS administration, 200 μl (about 80 mg/kg) of a thiazoline-related compound (2MT) solution prepared by diluting 100 times with saline was intraperitoneally administered. Blood samples were collected 16 hr after administration of LPS and thiazoline-related compound (2MT), EDTA plasma was prepared, and the blood level of inflammatory mediator High Mobility Group Box 1 (HMGB1) was measured by the ELISA method.

For assay [4], the system named is Trpa1 knockout mice and littermate hetero mice. The assay is described as follows: Oxygen consumption on odor presentation, Trpa1 knockout and hetero mice. The settings on record: two filter papers scented with 271 μmol. On the procedure:
as §1
The oxygen consumption was measured using an energy metabolism measurement device for small animals as in Example 8.About 3-month to 6-month-old Trpa1 knockout mice and littermate hetero mice were each placed in a measuring chamber of the energy metabolism measurement device for small animals and, after acclimation for about 2 hr, a thiazoline-related compound (2MT) was presented. The odor was presented by placing two filter papers scented with 271 μmol of thiazoline-related compound (2MT) in the measuring chamber.

`CC1=NCCS1` [2MT, 2-methyl-2-thiazoline]: the “changes in the core body temperature” value with Male C57/BL6N mice [1] was “clear decrease in the core body temperature”. In addition, the “time to decrease in the heart rate to half” value with Male C57/BL6N mice [2] is on record as at most 3 min. Further, the “changes in the heart rate” value with Male C57/BL6N mice [2] (20 min, versus no odor) was “clear decrease in the heart rate”. The “oxygen consumption per body weight” value with C57/BL6N male mice is listed as “decreased remarkably”; in assay [4] (Trpa1 knockout mice (Trpa1−/−)) it was “the oxygen consumption did not decrease”; in assay [4] (control mice (Trpa1+/−)) it was “the oxygen consumption was decreased”. The “blood concentration of IL-1β” value in the assay with Interleukin-1β (IL-1β) was “decreased the blood concentration of inflammatory cytokine IL-1β”. In addition, the “blood concentration of HMGB1” value in assay [3] is given as “decreased the blood concentration of inflammatory mediator HMGB1”.
